# Results taken from the PolyMetriX glass transition set.
# ± gives the standard deviation of the reports.
row,SMILES,glass transition temperature
1,*c1cccc(N2C(=O)c3cccc(Oc4ccc(C(=O)c5ccc(Oc6cccc7c6C(=O)N(*)C7=O)cc5)cc4)c3C2=O)c1 (repeat unit),248.00 °C
2,*Oc1c(Cl)cc(C(c2cc(Cl)c(OC(*)=O)c(Cl)c2)C2CC3CCC2C3)cc1Cl (repeat unit),270.00 °C
3,*c1ccc2c(c1)C(=O)N(c1cccc(Oc3ccc(P(=O)(c4ccccc4)c4ccc(Oc5cccc(N6C(=O)c7ccc(C(*)(C(F)(F)F)C(F)(F)F)cc7C6=O)c5)cc4)cc3)c1)C2=O (repeat unit),243.00 °C
4,*c1ccc(Oc2ccc(C(=O)c3ccc(C(=O)c4ccc(Oc5ccc(-c6nc7ccccc7n6-c6ccc(-n7c(*)nc8ccccc87)cc6)cc5)cc4)cc3)cc2)cc1 (repeat unit),238.00 °C
5,*c1ccc(Oc2ccccc2Oc2ccc(N3C(=O)c4ccc(-c5ccc6c(c5)C(=O)N(*)C6=O)cc4C3=O)cc2)cc1 (repeat unit),241.00 °C
6,*CC(CC)(CC)CO* (repeat unit),-30.00 °C
7,*C(=O)Nc1ccc(Oc2cccc(NC(=O)c3ccc4c(c3)C(=O)N(c3ccc(Oc5ccc(C6(c7ccc(Oc8ccc(N9C(=O)c%10ccc(*)cc%10C9=O)cc8)cc7)NC(=O)c7ccccc76)cc5)cc3)C4=O)c2)cc1 (repeat unit),302.00 °C
8,*Oc1ccc(-c2ccc(Oc3ccc(C(C)(C)c4ccc(*)cc4)cc3)cc2)cc1 (repeat unit),154.00 °C
9,*c1ccc(Oc2ccc(-n3c(=O)c4c(Oc5ccc(OCCCCCCCCCCCC)cc5)c5c(=O)n(*)c(=O)c5c(Oc5ccc(OCCCCCCCCCCCC)cc5)c4c3=O)cc2)cc1 (repeat unit),218.00 °C
10,*CC(OC(=O)C(=O)OCC)C(COC(=O)O*)OC(=O)C(=O)OCC (repeat unit),53.80 °C
11,*CCOCCOCCOCCOC(=O)NCCCCCCNC(=O)O* (repeat unit),-17.00 °C
12,*c1ccc(-c2ccc(-c3cc(-c4ccc(-c5ccc(Oc6ccccc6)cc5)cc4)c4cc(-c5ccc6nc(*)cc(-c7ccc(-c8ccc(Oc9ccccc9)cc8)cc7)c6c5)ccc4n3)cc2)cc1 (repeat unit),374.00 °C
13,*CC(*)C(=O)Oc1ccccc1C(=O)OC (repeat unit),46.00 °C
14,*CC(OC)C1(C)C(=O)OC(=O)C1(*)C (repeat unit),260.00 °C
15,*c1ccc2c(c1)C(=O)N(c1cc(C(=O)Nc3c(C)cc(-c4cc(C)c(NC(=O)c5ccc(C)c(N6C(=O)c7ccc(C(*)(C(F)(F)F)C(F)(F)F)cc7C6=O)c5)c(C)c4)cc3C)ccc1C)C2=O (repeat unit),250.00 °C
16,*CCCOC(=O)CCC(=O)O* (repeat unit),-34.70 °C
17,*CC(COc1ccc(C(C)(c2ccccc2)c2ccc(O*)cc2)cc1)OC(=O)c1ccccc1 (repeat unit),126.00 °C
18,*C(=O)Oc1ccc(OC(=O)c2ccc3c(c2)C(=O)N(c2ccc(Oc4ccc(Oc5ccc(N6C(=O)c7ccc(*)cc7C6=O)cc5)cc4)cc2)C3=O)cc1 (repeat unit),230.00 °C

row,SMILES,glass transition temperature
1,*c1ccc2c(c1)C(=O)N(c1cccc(Oc3cccc(N4C(=O)c5ccc(C(F)(F)C(F)(F)C(*)(F)F)cc5C4=O)c3)c1)C2=O (repeat unit),312.00 °C
2,*C(=O)c1ccc(Oc2ccc(C3(c4ccc(Oc5ccc(C(=O)c6ccc7c(c6)C(=O)N(c6ccc(Oc8ccc(N9C(=O)c%10ccc(*)cc%10C9=O)cc8)cc6)C7=O)cc5)cc4)OC(=O)c4ccccc43)cc2)cc1 (repeat unit),260.00 °C
3,*CC(*)(C)C(=O)OCCC(F)(F)C(F)(F)C(F)(F)C(F)(F)F (repeat unit),23.00 °C
4,*CC(OCC(C)C)C(C(=O)OC)C(*)C(=O)OC (repeat unit),44.50 °C
5,*Oc1ccc(/N=C(\c2ccccc2)c2ccc(Oc3ccc(C(c4ccccc4)(c4ccccc4)c4ccc(Oc5ccc(/C(=N/c6ccc(*)cc6)c6ccccc6)cc5)cc4)cc3)cc2)cc1 (repeat unit),177.00 °C
6,*CC(*)c1ccc([Si](C)(O[Si](C)(C)C)O[Si](C)(C)C)cc1 (repeat unit),54.00 °C
7,*Oc1c(Cl)cc(*)cc1Cl (repeat unit),176.82 °C
8,*Sc1ccc(Nc2ccc(*)cc2)cc1 (repeat unit),145.00 °C
9,*c1ccc(Oc2ccc(Oc3ccc(N4C(=O)c5cccc(Oc6ccc(C(C)(C)c7ccc(Oc8cccc9c8C(=O)N(*)C9=O)cc7)cc6)c5C4=O)c(C)c3)cc2)cc1C (repeat unit),222.00 °C
10,*c1cc(Br)c(OC(=O)c2ccc(C(=O)Oc3c(Br)cc(C4(*)OC(=O)c5ccccc54)cc3Br)cc2)c(Br)c1 (repeat unit),319.00 °C
11,*CCOc1ccc(S(=O)(=O)c2ccc(OCCOP(=O)(O*)Oc3ccc(Br)cc3)cc2)cc1 (repeat unit),59.00 °C
12,*Oc1c(C)cc(C(c2cc(C)c(OC(*)=O)c(C)c2)(C(F)(F)F)C(F)(F)F)cc1C (repeat unit),208.00 °C
13,*CCCCCCCCCCNC(=O)CCP(C)(=O)CCC(=O)N* (repeat unit),45.50 °C
14,*c1ccc(Oc2ccc(-c3ccc(Oc4ccc(N5C(=O)c6ccc(Oc7ccc8c(c7)C(=O)N(*)C8=O)cc6C5=O)cc4)cc3)cc2)cc1 (repeat unit),245.00 °C
15,*Nc1ccc(*)cc1 (repeat unit),75.30 °C
16,*Oc1ccc(C(=O)NNC(=O)c2ccc(C(=O)NNC(=O)c3ccc(OC(=O)c4cccc(C(*)=O)c4)cc3)cc2Oc2ccccc2)cc1 (repeat unit),160.00 °C
17,*CCNC(=O)c1ccc(O*)cc1 (repeat unit),150.00 °C

# More lines, now with the values ahead:
row,glass transition temperature,SMILES
1,110.00 °C,*Oc1cccc(NC(=O)CCCCCCCCCC(=O)Nc2ccc(*)cc2)c1 (repeat unit)
2,251.00 °C,*Oc1ccc(S(=O)(=O)c2ccc(Oc3ccc(NC(=O)c4ccc(-c5ccc(C(=O)Nc6ccc(*)cc6)c(C)c5)cc4C)cc3)cc2)cc1 (repeat unit)
3,112.00 °C,*CCCCCCNC(=O)c1ccc(C(=O)N*)c(Oc2ccc(-c3ccccc3)cc2)c1 (repeat unit)
4,242.20 °C,*Oc1ccc(S(=O)(=O)c2ccc(Oc3ccc(-c4ccc(*)cc4)cc3)cc2N)c(N)c1 (repeat unit)
5,255.50 °C,*Oc1ccc(NC(=O)c2cc(C(=O)Nc3ccc(Oc4ccc(C(c5ccc(*)cc5)(C(F)(F)F)C(F)(F)F)cc4)cc3)cc(C(C)(C)C)c2)cc1 (repeat unit)
6,277.00 °C,*Nc1ccc(C2(c3ccc(NC(=O)c4cccc(C(*)=O)c4)cc3)c3ccccc3-c3ccccc32)cc1 (repeat unit)
7,217.00 °C,*Nc1cc(NC(=O)c2ccc(C(*)=O)cc2)cc(C(=O)OC(c2ccccc2)c2ccccc2)c1 (repeat unit)
8,155.00 °C,*Oc1ccc(NC(=O)c2ccc(Oc3ccc(C(C)(C)c4cccc(C(C)(C)c5ccc(Oc6ccc(C(=O)Nc7ccc(*)cc7)cc6)cc5)c4)cc3)cc2)cc1 (repeat unit)
9,111.00 °C,*Oc1ccc(/C(=C/c2ccc(-c3ccc(/C=C(\c4ccccc4)c4ccc(OC(=O)CCCCCCCCC(*)=O)cc4)cc3)cc2)c2ccccc2)cc1 (repeat unit)
10,9.00 °C,*CC(F)(F)C(F)(F)C(F)(F)COC(=O)c1ccc(OCCCCC)c(C(=O)O*)c1 (repeat unit)
11,171.00 °C,*Nc1ccc(-c2ccc(NC(=O)Cc3cc(C)c(CC(*)=O)cc3C)cc2)cc1 (repeat unit)
12,199.92 ± 1.5 °C,*Oc1ccc(C(C)(C)c2ccc(OC(=O)c3ccc(C(*)=O)cc3)cc2)cc1 (repeat unit) [Poly(Bisphenol A terephthalate)]
13,234.00 °C,*CCCCCCCCc1nc2cc(-c3ccc4[nH]c(*)nc4c3)ccc2[nH]1 (repeat unit)
14,164.00 °C,*CCNC(=O)c1ccc(C(=O)N*)c(Oc2ccccc2)c1 (repeat unit)
15,105.00 °C,*CC(O)COc1ccc(C(C)(C)c2ccc(OCC(O)COc3ccc(NC(=O)CCCC(=O)Nc4ccc(O*)cc4)cc3)cc2)cc1 (repeat unit)
16,145.00 °C,*Oc1ccc(NC(=O)c2cccc(C(=O)Nc3ccc(Oc4ccc(C(=O)c5ccc(*)cc5)cc4)cc3)c2)cc1 (repeat unit)
17,61.00 °C,*OC(=O)C(CCSC)NC(=O)CCCCCCCCC(=O)NC(CCSC)C(=O)OC1COC2C(*)COC12 (repeat unit)
18,95.00 °C,*O[Si](C)(Oc1ccc(*)cc1)c1ccccc1 (repeat unit)
19,151.00 °C,*Oc1ccc(Oc2ccc(C(=O)c3ccc(*)cc3)cc2)cc1C (repeat unit)
20,106.80 °C,*CC(*)C(=O)OCCn1c2ccccc2c2ccccc21 (repeat unit)
21,187.00 °C,*Oc1ccc(/C(=C/c2cc(OC)c(/C=C(/c3ccc(*)cc3)c3ccc(F)cc3)cc2OC)c2ccc(F)cc2)cc1 (repeat unit)
22,57.00 °C,*CC(*)(C)C(=O)OCCCCCCCCCCOc1ccc(C(=O)Oc2ccc(C(=O)/C=C/c3c(C)c4ccccc4n3CCCC)cc2)cc1 (repeat unit)
23,15.00 °C,*Oc1ccc(CC(NC(=O)CCc2ccc(OC(=O)CCCCCCC(*)=O)cc2)C(=O)OCCCCCCCCCCCC)cc1 (repeat unit)
24,108.00 °C,*c1ccc(C(C#N)(C(=O)OC)C(*)(C#N)C(=O)OC)cc1 (repeat unit)
25,64.00 °C,*CC(*)C(=O)Nc1ccc(C(=O)/C=C/c2ccc(Br)cc2)cc1 (repeat unit)
26,122.00 °C,*CCCCCCNC(=O)CCC1(CCC(=O)N*)c2ccccc2-c2ccccc21 (repeat unit)
27,129.50 °C,*CCCCCCCOc1ccc(-c2ccc(O*)c3ccccc23)c2ccccc12 (repeat unit)
28,98.00 °C,*CCCCCC(=O)Oc1ccc2ccc(OC(=O)CCCCCn3c(=O)c4cc5c(=O)n(*)c(=O)c5cc4c3=O)cc2c1 (repeat unit)
29,110.00 °C,*CC(*)(C)C(=O)OCCN(C)c1ccc(/N=N/c2ccc([N+](=O)[O-])cc2)cc1 (repeat unit)
